# From ChEMBL document CHEMBL1146798, “QSAR of adenosine receptor antagonists. Part 3: Exploring physicochemical requirements for selective binding of 1,2,4-triazolo[5,1-i]purine derivatives with human adenosine A3 receptor subtype” (Bioorg Med Chem Lett, 2004)
# Assay: Partition coefficient (logP)
# Assay type: physicochemical
# Details: octanol/water
row,Structure (SMILES),logP
1,CCCCc1nc2nc[nH]c2c2nc(-c3ccc(O)cc3)nn12,3.84
2,CCCCc1nc2[nH]cnc2c2nc(-c3ccc(C)cc3)nn12,4.71
3,CCCCc1nc2[nH]cnc2c2nc(-c3cccc(C)c3)nn12,4.71
4,CCCCc1nc2nc[nH]c2c2nc(-c3ccc(F)cc3)nn12,4.38
5,CCCCc1nc2[nH]cnc2c2nc(-c3ccccc3)nn12,4.23
6,CCCCc1nc2[nH]cnc2c2nc(C)nn12,2.57
7,CCCCc1nc2nc[nH]c2c2nc(-c3ccccc3Cl)nn12,4.78
8,CCCCc1nc2[nH]cnc2c2nc(-c3ccc(N(C)C)cc3)nn12,4.51
9,CCCCc1nc2nc[nH]c2c2nc(-c3ccc(Br)cc3)nn12,5.05
10,CCCCc1nc2nc[nH]c2c2nc(-c3ccc(OCC)cc3)nn12,4.44
11,CCCCc1nc2nc[nH]c2c2nc(-c3cccc(Cl)c3)nn12,4.78
12,CCCCc1nc2[nH]cnc2c2nc(-c3ccc(C(F)(F)F)cc3)nn12,5.15
13,CCCCc1nc2[nH]cnc2c2nc(-c3cc(OC)c(OC)c(OC)c3)nn12,3.85
14,CCCCc1nc2nc[nH]c2c2nc(-c3ccc(Cl)cc3)nn12,4.78
15,CCCCc1nc2nc[nH]c2c2nc(-c3ccc(-c4ccccc4)cc3)nn12,5.9
16,CCc1nc2[nH]cnc2c2nc(-c3ccccc3)nn12,3.39
17,CCCCc1nc2nc[nH]c2c2nc(-c3ccc(SC)cc3)nn12,4.66
18,Cc1nc2[nH]cnc2c2nc(-c3ccccc3)nn12,2.82
19,CCCCCc1nc2nc[nH]c2c2nc(-c3ccccc3)nn12,4.64
20,CCCCc1nc2[nH]cnc2c2nc(-c3ccco3)nn12,2.84
21,CCCCc1nc2[nH]cnc2c2nc(-c3cccnc3)nn12,2.89
22,CCCc1nc2nc[nH]c2c2nc(-c3ccccc3)nn12,3.81
23,CCCCCCc1nc2nc[nH]c2c2nc(-c3ccccc3)nn12,5.06
24,CCCCc1nc2[nH]cnc2c2nc(-c3cccc(OC)c3)nn12,4.1
25,c1ccc(-c2nc3c4nc[nH]c4nc(-c4ccccc4)n3n2)cc1,4.2
26,CCCCc1nc2[nH]cnc2c2nc(Cc3ccccc3)nn12,4.33
27,CCCCc1nc2[nH]cnc2c2nc(-c3ccc(OC)cc3)nn12,4.1
28,CCCCc1nc2[nH]cnc2c2nc(-c3ccc(OCCC)cc3)nn12,4.92
29,CCCCc1nc2[nH]cnc2c2nc(-c3ccc(C(C)(C)C)cc3)nn12,5.93
